Laboratory results as given in patent US7888395B2, “STAT3 phosphorylation inhibitor and notch1 expression inhibitor” (Meiji Dairies Corporation, priority 2004, dated 2011).

Tests used:
Notch1 [1] = experiment: Gene expression test, RT-PCR analysis of Notch1; type: cell-based, mouse, rat; details: treated relative to untreated cells, normalized toward GAPDH
Procedure: (§1) In ethanol, 2,4,4-trimethyl-3-(15-hydroxypentadecyl)-2-cyclohexen-1-one synthesized by the method described in JP-A-2000-297034 was dissolved to give a concentration of 10^−2 M. The solution was added to a culture solution in a desirable concentration to be final dilution of 1 μl/ml. At different times and different periods in cell culture, 2,4,4-trimethyl-3-(15-hydroxypentadecyl)-2-cyclohexen-1-one was added. […] Each experiment was repeated at least three times.
(§2) Protocol was adapted from Grandbarbe et al., Development (2003) 130, 1393-1402. When briefly explained, as described in Tropepe et al., Dev. Biol. (1999) 208, 166-188, primary neurospheres were prepared from telencephalon of wild-type embryo (E14.5) and were maintained as secondary neurospheres by continuous subculture in a serum-free medium (Reynolds and Weiss, Science (1992) 255, […]) containing 10 ng/ml EGF. After propagation for different times, 50 to 100 neurospheres were inoculated to a polyornithine (Sigma)-coated cover slip in the presence of 2 ng/ml EGF and 0.5% FBS and differentiated. […]
(§3) Typical cycle conditions were 94° C. for 30 seconds, 55° C. for 30 seconds, and 72° C. for 30 seconds except for HES-5 whose program was 94° C. for 30 seconds, 63° C. for 30 seconds, and 72° C. for 2 minutes. […] The relative amount of mRNA was quantitatively determined in accordance with BabyImager analysis and NIHimage 1.36.

[2] = test system: Notch receptors (Notch 2 to 4); experiment: Gene expression test, RT-PCR analysis of the other Notch receptors; type: cell-based, mouse, rat; details: treated relative to untreated cells, normalized toward GAPDH
Procedure: as §1, §2, §3

HES5 = experiment: Gene expression test, RT-PCR analysis of HES5; type: cell-based, mouse, rat; details: treated relative to untreated cells, normalized toward GAPDH
Procedure: as §1, §2, §3

STAT3 = experiment: Western Blot of STAT3 phosphorylation; type: cell-based; details: 10^−8 M solution, compared with control without compound, FIG. 2
Procedure: After preparation of 2,4,4-trimethyl-3-(15-hydroxypentadecyl)-2-cyclohexen-1-one solution (10^−8 M), Western Blot was performed using STAT3 and phosphorylated STAT3 antibody (STAT3 antibody derived from rabbit, manufactured by Cell Signaling) to confirm the action of 2,4,4-trimethyl-3-(15-hydroxypentadecyl)-2-cyclohexen-1-one on STAT3 phosphorylation.

[3] = test system: 3T3 Ras transformed fibroblast; experiment: In vitro test, neoplastic foci of 3T3 Ras transformed fibroblast; type: cell-based, mouse; details: 10^−6M, compared with untreated cell, FIG. 3
Procedure: When 3T3 Ras transformed fibroblast was cultured in 10% FBS-containing DMEM medium for 3 days, appearance of “foci” is observed as compared with non-transformed cell strains.
Each of 3T3 Ras transformed fibroblast (derived from mouse) or 3T3 fibroblast (derived from mouse) each is cultured at a concentration of 10,000 cell/ml in 10% FBS-containing DMEM medium for 1 day.
Thereafter, each cell is treated with 10^−5M 2,4,4-trimethyl-3-(15-hydroxypentadecyl)-2-cyclohexen-1-one for 6 days.
3T3 Ras transformed fibroblast or 3T3 fibroblast is cultured at a concentration of 10,000 cell/ml in 5% FBS-containing DMEM medium which contains 0.625% agar (DIFCO) and 10^−6 M 2,4,4-trimethyl-3-(15-hydroxypentadecyl)-2-cyclohexen-1-one.
(§4) The fibroblast transformed with Ras was treated with 2,4,4-trimethyl-3-(15-hydroxypentadecyl)-2-cyclohexen-1-one (10^−6M) and then compared with the untreated cell. Non-transformed cell strains (treated and untreated) were used as controls.

Notch1 [4] = experiment: Notch1 expression in cell strain transformed with Ras; type: cell-based, mouse; details: fibroblast transformed with Ras, 10^−6M
Procedure: as §4

[5] = test system: 3T3 Ras transformed fibroblast; experiment: Ex vivo test, tumor size after injection of 3T3 Ras transformed fibroblast into Swiss Nu/Nu mouse; type: in vivo; details: cells pretreated 3 days, intraperitoneal on days 2, 8 and 15, FIG. 4
Procedure: In a test tube for 3 days, 3T3 Ras transformed fibroblast (derived from mouse) or 3T3 fibroblast (derived from mouse) was treated with applying 50 μl (10^−3 M) of 2,4,4-trimethyl-3-(15-hydroxypentadecyl)-2-cyclohexen-1-one. The cell ([…]) was again suspended in 400 μl of DMEM medium and 200 μl thereof was injected into 7 weeks-old Swiss Nu/Nu mouse (male) symmetrically. On second, eighth, and fifteenth days after injection, 2,4,4-trimethyl-3-(15-hydroxypentadecyl)-2-cyclohexen-1-one was intraperitoneally administrated into mouse.

CC1=C(CCCCCCCCCCCCCCCO)C(C)(C)CCC1=O [2,4,4-trimethyl-3-(15-hydroxypentadecyl)-2-cyclohexen-1-one]
levels of mRNA of Notch1 (Notch1 [1]): always decreased
expression levels of the other Notch receptors (Notch 2 to 4) [2]: not changed
levels of mRNA of HES5 (HES5): always decreased
STAT3 phosphorylation (band of P-STAT3) (STAT3): suppressed
neoplastic foci of the cell strain transformed with Ras [3]: reduced
Notch1 expression (Notch1 [4]): decrease
tumor size [5]: reduced
